Where only a bound is given, the exact number is not on record here.

By inhibition is commonly meant the relative decrease from the control value, in per cent. As usually defined, the IC50 is the midpoint of a concentration-inhibition curve. In general, half-life refers to how long it takes for the measured level to halve.

For series [1], the target named is T1, CYP21 (steroid 21-hydroxylase) (Homo sapiens, UniProt P08686).
T1 sequence (P08686 whole entry): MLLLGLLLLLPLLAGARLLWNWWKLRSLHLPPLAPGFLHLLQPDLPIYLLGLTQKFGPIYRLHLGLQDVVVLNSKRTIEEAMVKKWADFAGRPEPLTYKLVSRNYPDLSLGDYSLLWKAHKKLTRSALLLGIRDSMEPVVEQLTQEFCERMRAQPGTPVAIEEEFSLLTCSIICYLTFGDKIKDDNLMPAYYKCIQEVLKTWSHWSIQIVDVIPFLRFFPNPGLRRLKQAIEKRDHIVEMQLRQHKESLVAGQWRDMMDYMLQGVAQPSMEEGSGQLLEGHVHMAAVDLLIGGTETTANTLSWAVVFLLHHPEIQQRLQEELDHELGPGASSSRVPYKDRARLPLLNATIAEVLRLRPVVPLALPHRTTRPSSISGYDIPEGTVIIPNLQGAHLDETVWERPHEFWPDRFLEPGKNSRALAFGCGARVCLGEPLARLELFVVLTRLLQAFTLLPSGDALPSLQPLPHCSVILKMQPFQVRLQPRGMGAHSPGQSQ
The experiment in a line: Inhibition of human CYP21 transfected in HEK293 cells assessed as decrease in conversion of progesterone to 11-deoxycorticosterone preincubated for 5 hrs followed by progesterone addition measured after 20 hrs by ELISA. In kind it is cell-based. The note with it: HEK293 cells transfected with human CYP21, probe progesterone. More on the design: concentration or dose not given beside the values. For orientation: In an ELISA, binding on a coated surface is turned into a signal by an enzyme label.

The target of series [2] is T2, Steroid 17-alpha-hydroxylase/17,20 lyase (Homo sapiens, UniProt P05093).
T2 sequence (P05093 whole entry): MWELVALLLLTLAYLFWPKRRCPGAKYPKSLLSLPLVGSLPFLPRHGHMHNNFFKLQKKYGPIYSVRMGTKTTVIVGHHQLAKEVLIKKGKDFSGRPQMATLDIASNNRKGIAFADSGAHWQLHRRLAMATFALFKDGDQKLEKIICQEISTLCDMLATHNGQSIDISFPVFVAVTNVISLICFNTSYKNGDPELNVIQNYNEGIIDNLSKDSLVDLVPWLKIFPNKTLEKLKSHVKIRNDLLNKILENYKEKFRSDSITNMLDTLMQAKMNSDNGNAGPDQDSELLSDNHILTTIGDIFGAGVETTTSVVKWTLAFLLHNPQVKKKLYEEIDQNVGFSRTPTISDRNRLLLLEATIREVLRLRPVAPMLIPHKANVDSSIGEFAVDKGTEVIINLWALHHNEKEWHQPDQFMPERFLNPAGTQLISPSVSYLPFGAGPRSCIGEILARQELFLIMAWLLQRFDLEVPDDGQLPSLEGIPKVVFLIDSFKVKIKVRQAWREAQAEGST
As to the kind of experiment: Inhibition of CYP17 in human testicular microsomes using 17alpha-hydroxypregnenolone as substrate assessed as decrease in DHEA levels after 90 mins by ELISA. More on the design: species or system Testis.

Series [3] is described as follows: Half life in human liver microsomes at 1 uM by LC-MS/MS analysis. (Liver microsomes are vesicles of endoplasmic reticulum, rich in cytochrome P450 enzymes.)
For series [4], the target named is T2, Steroid 17-alpha-hydroxylase/17,20 lyase. As to the kind of experiment: Inhibition of CYP17 in human testicular microsomes using 17alpha-hydroxypregnenolone as substrate assessed as decrease in DHEA levels at 10 nM after 90 mins by ELISA relative to control. More on the design: species or system Testis. The note with it: 1.5 h.

As to `C[C@]12CC[C@H]3[C@@H](CC(F)[C@]4(O)C[C@@H](O)CC[C@]34C)[C@@H]1CC=C2c1cccnc1` (stereo partly specified), the inhibition at 20 h in series [1] is at least 50%. In series [2], the IC50 is at most 11 nM. For the same compound, the half-life at 1 µM in series [3] lay in the range of 1 to 50 min.
With `CCOc1cncc(C2=CC[C@H]3[C@@H]4CC[C@H]5CCCCC[C@]5(C)[C@H]4CC[C@]23C)c1`, in series [4], the inhibition at 0.01 µM fell in the range of 1 to 50%.
Turning to `C[C@]12CC[C@H](O)CC1=CC[C@@H]1[C@@H]2CC[C@]2(C)C(c3cncc(Cl)c3)=CC[C@@H]12`, in series [1], the inhibition at 20 h is at least 50%. Further, the IC50 in series [2] is at most 11 nM. For the same compound, in series [3], the half-life at 1 µM lay within 1 to 50 min.
Take `C[C@]12CCC(=O)NC[C@@H]1CC[C@@H]1[C@@H]2CC[C@]2(C)C(n3ccnc3)=CC[C@@H]12`: in series [4], the inhibition at 0.01 µM lay in the range of 50 to 80%.
With `CC(=O)N[C@@H]1CC[C@@]2(C)C(=CC[C@@H]3[C@@H]2CC[C@]2(C)C(c4cncc(F)c4)=CC[C@@H]32)C1`, the inhibition at 20 h in series [1] is at least 50%. In addition, the IC50 in series [2] is at most 11 nM. The compound further showed a half-life at 1 µM in series [3] of 1 to 50 min.
The like results for `COc1cncc(C2=CC[C@H]3[C@@H]4CC=C5C[C@H](NC(=O)C6CC6)CC[C@]5(C)[C@H]4CC[C@]23C)c1` were, in that order, at least 50%, at most 11 nM and 1 to 50 min.
The like results for `CCCC(=O)N[C@@H]1CC[C@@]2(C)C(=CC[C@@H]3[C@@H]2CC[C@]2(C)C(c4cccnc4)=CC[C@@H]32)C1` were, in that order, at least 50%, at most 11 nM and 1 to 50 min.
Taken in the same sequence, the figures for `C[C@]1(O)CC[C@@]2(C)C(CC[C@H]3C4=CC=C(c5cccnc5)[C@@]4(C)CC[C@@H]32)C1` (stereo partly specified) were 10 to 50%, at most 11 nM and 1 to 50 min.
`C[C@]12CC[C@@H](NC(=O)C3CCC3)CC1=CC[C@@H]1[C@@H]2CC[C@]2(C)C(n3ccnc3)=CC[C@@H]12`: the inhibition at 20 h in series [1] is at least 50%. Further, the IC50 in series [2] is at most 11 nM. Further, the half-life at 1 µM in series [3] lay in the range of 1 to 50 min.
With `C[C@]12CCNC(=O)CC[C@@H]1CC[C@@H]1[C@@H]2CC[C@]2(C)C(c3cccnc3)=CC[C@@H]12`, the inhibition at 0.01 µM in series [4] is 50 to 80%.
As for `C[C@]12CC[C@H]3[C@@H](CC=C4C[C@H](O)CC[C@@]43C)C1=CC=C2c1cccnc1`, the inhibition at 20 h in series [1] was at least 50%. Further, the IC50 in series [2] is at most 11 nM. In addition, in series [3], the half-life at 1 µM fell in the range of 1 to 50 min.
The like results for `C[C@]12CC[C@H](O)CC1=CC[C@@H]1[C@@H]2CC[C@]2(C)C(c3cncc(N)c3)=CC[C@@H]12` were, in that order, at least 50%, at most 11 nM and at least 50 min.
For `C[C@]12CC[C@H]3[C@@H](CC[C@H]4CNC(=O)CC[C@@]43C)C1=CC=C2c1cccnc1`, the inhibition at 0.01 µM in series [4] is 50 to 80%.
`CCc1cncc(C2=CC[C@H]3[C@@H]4CC[C@H]5CCCCC[C@]5(C)[C@H]4CC[C@]23C)c1`: the inhibition at 0.01 µM in series [4] was in the range of 1 to 50%.
With `C[C@]12CC[C@H]3[C@@H](CC(F)[C@@]4(O)C[C@@H](O)CC[C@]34C)[C@@H]1CC=C2c1cccnc1` (stereo partly specified), in series [1], the inhibition at 20 h is at least 50%. Also, the IC50 in series [2] was at most 11 nM. This compound also yielded a half-life at 1 µM in series [3] of 1 to 50 min.
Taken in the same sequence, the figures for `C[C@]12CC[C@H](O)CC1=CC[C@@H]1[C@@H]2CC[C@]2(C)C(c3cccnc3F)=CC[C@@H]12` were at least 50%, at most 11 nM and 1 to 50 min.
As to `C[C@]12CC(=O)C[C@@H]1CC[C@@H]1[C@@H]2CC[C@]2(C)C(n3ccnn3)=CC[C@@H]12`, in series [4], the inhibition at 0.01 µM lay within 1 to 50%.
The same measure, in the same setting: the same measure for `C[C@]12CCCNC[C@@H]1CC[C@@H]1[C@@H]2CC[C@]2(C)C(n3ccnn3)=CC[C@@H]12`: 1 to 50%.
In the case of `C[C@]12CCC(=O)C=C1C(F)C[C@@H]1[C@@H]2CC[C@]2(C)C(c3cncc(F)c3)=CC[C@@H]12` (stereo partly specified), the inhibition at 20 h in series [1] is at least 50%. In addition, in series [2], the IC50 was at most 11 nM. The half-life at 1 µM in series [3] lay in the range of 1 to 50 min.
Consider `C[C@]12CC[C@H]3[C@@H](CC[C@H]4CNC(=O)CC[C@@]43C)C1=CC=C2n1ccnc1`, for which the inhibition at 0.01 µM in series [4] lay in the range of 50 to 80%.
Take `C[C@]12CCNC(=O)C=C1C(F)C[C@@H]1[C@@H]2CC[C@]2(C)C(c3cccnc3)=CC[C@@H]12` (stereo partly specified): in series [1], the inhibition at 20 h was at least 50%. The IC50 in series [2] is at most 11 nM. Moreover, the half-life at 1 µM in series [3] lay in the range of 1 to 50 min.
Take `CCCOc1cncc(C2=CC[C@H]3[C@@H]4CCC5=CC(=O)N(C)CC[C@]5(C)[C@H]4CC[C@]23C)c1`: in series [4], the inhibition at 0.01 µM was in the range of 50 to 80%.
On the same count and under the same terms, the same measure for `COc1cncc(C2=CC[C@H]3[C@@H]4CC=C5CCCC[C@]5(C)[C@H]4CC[C@]23C)c1`: 50 to 80%.
Same read-out and setting: the same measure for `C[C@]12CCCCC[C@@H]1CC[C@@H]1[C@@H]2CC[C@]2(C)C(c3cnccc3Cl)=CC[C@@H]12`: 1 to 50%.
`C[C@@]1(O)CC[C@@]2(C)C(=CC[C@@H]3[C@@H]2CC[C@]2(C)C(c4cncc(F)c4)=CC[C@@H]32)C1`: the inhibition at 20 h in series [1] is at least 50%. Further, the half-life at 1 µM in series [3] is at least 50 min.
Turning to `C[C@]12CC[C@H]3[C@@H](CC[C@H]4CC(=O)NCC[C@@]43C)C1=CC=C2n1ccnn1`, the inhibition at 0.01 µM in series [4] fell in the range of 1 to 50%.
Turning to `C[C@]12CC[C@H]3[C@@H](CC(O)C45CC4CC[C@]35C)C1=CC=C2c1cccnc1` (stereo partly specified), the inhibition at 20 h in series [1] is at least 50%. Also, in series [2], the IC50 was at most 11 nM. The half-life at 1 µM in series [3] was 1 to 50 min.
Taken in the same sequence, the figures for `CC(=O)N[C@@H]1CC[C@@]2(C)C(=CC[C@@H]3[C@@H]2CC[C@]2(C)C(c4cncc(C(F)F)c4)=CC[C@@H]32)C1` were at least 50%, at most 11 nM and 1 to 50 min.
On to `COC1CC[C@@]2(C)[C@@H](CC[C@@H]3[C@@H]2CC[C@]2(C)C(c4cccnc4)=CC[C@@H]32)C1` (stereo partly specified), for which the inhibition at 0.01 µM in series [4] lay in the range of 1 to 50%.
`C[C@]12CC[C@H](O)CC1=CC[C@@H]1[C@@H]2CC[C@]2(C)C(c3cncc(F)c3)=CC[C@@H]12`: the inhibition at 20 h in series [1] was at least 50%. Besides, the IC50 in series [2] was at most 11 nM. Besides, the half-life at 1 µM in series [3] is at least 50 min.
Regarding `C[C@]1(O)CC[C@@]2(C)C(CC[C@@H]3[C@@H]2CC[C@]2(C)C(c4cccnc4)=CC[C@@H]32)C1` (stereo partly specified), in series [1], the inhibition at 20 h is at least 50%. The half-maximal inhibitory concentration (IC50) in series [2] is at most 11 nM. In addition, the half-life at 1 µM in series [3] fell in the range of 1 to 50 min.
Take `CCNC(=O)N[C@@H]1CC[C@@]2(C)C(=CC[C@@H]3[C@@H]2CC[C@]2(C)C(c4cccnc4)=CC[C@@H]32)C1`: the inhibition at 20 h in series [1] was at least 50%. In series [3], the half-life at 1 µM lay within 1 to 50 min.
Taken in the same sequence, the figures for `COc1cncc(C2=CC[C@H]3[C@@H]4CCC5C[C@@H](NC(C)=O)CC[C@]5(C)[C@H]4CC[C@]23C)c1` (stereo partly specified) were at least 50% and 1 to 50 min.
The like results for `COC(=O)N[C@H]1CC[C@@]2(C)C(CC[C@H]3C4CC=C(c5cccnc5)[C@@]4(C)CC[C@@H]32)C1` (single isomer, unassigned) were, in that order, at least 50% and 1 to 50 min.
As to `C[C@]12CC[C@@H](NC(=O)C3CC3)CC1CC[C@H]1C3CC=C(c4cccnc4)[C@@]3(C)CC[C@@H]12` (single isomer, unassigned), the inhibition at 20 h in series [1] is at least 50%. The IC50 in series [2] was at most 11 nM. Moreover, the half-life at 1 µM in series [3] was 1 to 50 min.
For the compound `C[C@]12CC[C@@H](NC(=O)C3CC3)CC1=CC[C@H]1C3CC=C(c4cccnc4)[C@@]3(C)CC[C@@H]12` (single isomer, unassigned), the inhibition at 20 h in series [1] is at least 50%. The IC50 in series [2] is at most 11 nM. Besides, in series [3], the half-life at 1 µM is 1 to 50 min.
Taken in the same sequence, the figures for `CC(=O)NC1CC[C@@]2(C)C(CC[C@@H]3[C@@H]2CC[C@]2(C)C(c4cccnc4)=CC[C@@H]32)C1` (single isomer, unassigned) were at least 50%, at most 11 nM and 1 to 50 min.

The values are drawn from ChEMBL document CHEMBL3882724 (2013).
